Measured values taken from PMC7216467, “Evaluation of neuroprotective and anti-amnesic effects of Elaeagnus umbellata Thunb. On scopolamine-induced memory impairment in mice” (BMC Complementary Medicine and Therapies, 2020).

Legend:
[1] = target: T1, Acetyl cholinesterase (Electron-eel Type, VI-S) (Electrophorus electricus, UniProt O42275); assay: biochemical; assay type: biochemical
T1 construct: purchased Sigma-Aldrich, Germany
Method: Ellman assay was used to evaluate E. umbellata fruit extracts and isolated compounds for their anticholinesterase potentials. About 205 μL extract/compound solutions and 5 μL of AChE (0.03 U/mL)/BChE (0.01 U/mL) along with catalyst DTNB (5 μL) were taken in a cuvette and kept at 30 °C in hot water bath for 15 min. […] As a negative control solution all the above mentioned components except extracts and isolated compounds were mixed in the mentioned order.
V is inhibitor dependent rate of reaction while, Vmax is inhibitor independent rate of reaction.

mice = conditions: Swiss albino, mouse, in vivo, po, 72 h
Method: All animals were then treated orally with different doses of CHF. […] Immediately after dosing, the mice were observed continuously for 4 h for symptoms of toxicity such as motor activity, convulsions, muscle spasm, tremors, sedation, lacrimation, hypnosis, diarrhoea, salivation, and loss of righting reflex. Mice were then kept under observation up to 72 h for any mortality. The CHF. […] Therefore, according to OECD guidelines, CHF.

[2] = system: scopolamine-induced cognitive impairment in mice; assay: Y-maze test, scopolamine-induced amnesia; assay type: in vivo; conditions: for escape latency: day 1-5, vs scopolamine treated group; for percentage of alternate arm returns / percentage of same arm returns: vs scopolamine (1 mg/kg) group, CHF. Ext 200 mg/kg, CGA 10 and 30 mg/kg, donepezil 2 mg/kg
Method: (§1) After the acclimatization period, in scopolamine-induced amnesia test the Albino male mice were randomly divided into six groups (n = 6) to study the effect of CHF. […] The doses of tested solutions of CHF. […] The treatments were continued for 8 days. In the Y-maze and Novel object recognition tests, scopolamine (1 mg/kg, i.p.) was given to the different groups only on the 8th day, 30 min after the respective treatments, to induce cognitive deficit in mice. One hour after administration of the drugs all animals were subjected to Y-maze and Novel object recognition test following standard procedure.
The Y-Maze test was designed to evaluate the short term memory in experimental mice using reported procedure. Y-maze apparatus is Y shaped with three arms of equivalent size, labelled as A, B, and C. Each arm was 20 cm long, 6 cm wide and 15.5 cm high and was oriented at an angle of 120° from the other two. For each animal the Y maze testing was carried out for 5 min. Mice were placed in one arm, and the order and number of arm entries were recorded. An arm entry was considered to be complete when the hind paws of the mice was completely inside a given arm while alternation was defined as consecutive entries by a mouse into the three different arms. The arena was cleaned using 70% v/v ethanol between each trial to avoid olfactory cues. The escape latency (second) on day 1–5 were recorded for all animals. At the end of 5th day, the spontaneous alteration behavior study was conducted. In spontaneous alteration study, each animal was placed at the center of the Y-Maze apparatus and allowed to move freely through the maze. The series of arm entries were visually recorded. To start behavioral test the mice was set in one arm and recorded the number of arm entries, same arm returns (SAR), and alternate arm returns (AAR) were measured. Percent spontaneous alternation performance (SAP) was calculated by the following formula: 5 %SAP=Active alterationstotal alterations/Possible alterationstotalarmentries−2x100

[3] = system: scopolamine-induced cognitive impairment in mice; assay: Novel object recognition test, scopolamine-induced amnesia; assay type: in vivo; conditions: for time for exploration of novel object, test phase, long term memory: CHF. Ext 100 & 200 mg/kg; for time for exploration of novel object, test phase, long term memory / %DI, long term memory: CGA 10 & 30 mg/kg; for time for exploration of novel object, test phase, long term memory / %DI, long term memory / time with novel object, test phase, short term memory: donepezil 2 mg/kg; for %DI, long term memory: CHF. Ext 100, 200 mg/kg; for time with novel object, test phase, short term memory: vs scopolamine group (*p < 0.05, **p < 0.01), CHF. Ext 50, 100, 200 mg/kg, CGA 10 and 30 mg/kg
Method: as §1
The detail methodology published, was followed while performing the novel object recognition (NORT) test. NORT consisting of habituation, sample, and test phases. On the day before test, mice were allowed to explore the box (without any object) for 2 min. On the day of test after habituation the sample phase was carried out 60 min after the last treatment on the 8th day. In sample phase each mouse was placed in an open field with two identical objects (plastic ball) for 5 min. The mouse was then returned to its home cage. The apparatus was comprised of a white coloured plywood box (40 cm × 40 cm × 66 cm) with a network floors that could be effortlessly cleaned (with 70%v/v ethanol) after every trial. The apparatus was illuminated by a 60 W light suspended 50 cm over the crate. The arena and objects were cleaned with 70% v/v ethanol between trials to avoid olfactory cues. For short-term memory, the test phase was performed 5 min after the sample phase. In the test phase, each mouse was placed again in the open field in which one of the identical objects had been replaced with a novel object (plastic square). The location of the object was counterbalanced so that one half of the mice in each group saw the novel object on the left side of the box arena, and the other half saw the novel object on the right side of the box arena to eliminate bias of sides. NORT can also be used for encoding and retrieval of spatial memory (long-term memory). A wash-out period of 5 days was allowed before the NORT to assess long-term memory in mice. The procedure was the same as that for short-term memory except that mice were presented in the test phase 24 h after the sample phase exposure. The time spent exploring each object in each phase was recorded manually using a stopwatch. A mouse was scored as exploring when its head was oriented towards the object within a distance of 2 cm or when the nose was in contact with the object. Parameters including the time (in seconds) spent exploring familiar (F) object, time (in seconds) spent exploring the novel (N) object, and total time (in seconds) spent exploring both objects (N + F) were measured separately.

AChE = target: T2, AChE (Mus musculus, UniProt P21836); assay type: in vivo; conditions: ex vivo, NORT animals, vs scopolamine treated group
T2 construct: supernatants were collected from homogenized part of brain tissues; from tissue; host or cells: mouse frontal cortex and hippocampus homogenate supernatant
T2 sequence (P21836 32-614): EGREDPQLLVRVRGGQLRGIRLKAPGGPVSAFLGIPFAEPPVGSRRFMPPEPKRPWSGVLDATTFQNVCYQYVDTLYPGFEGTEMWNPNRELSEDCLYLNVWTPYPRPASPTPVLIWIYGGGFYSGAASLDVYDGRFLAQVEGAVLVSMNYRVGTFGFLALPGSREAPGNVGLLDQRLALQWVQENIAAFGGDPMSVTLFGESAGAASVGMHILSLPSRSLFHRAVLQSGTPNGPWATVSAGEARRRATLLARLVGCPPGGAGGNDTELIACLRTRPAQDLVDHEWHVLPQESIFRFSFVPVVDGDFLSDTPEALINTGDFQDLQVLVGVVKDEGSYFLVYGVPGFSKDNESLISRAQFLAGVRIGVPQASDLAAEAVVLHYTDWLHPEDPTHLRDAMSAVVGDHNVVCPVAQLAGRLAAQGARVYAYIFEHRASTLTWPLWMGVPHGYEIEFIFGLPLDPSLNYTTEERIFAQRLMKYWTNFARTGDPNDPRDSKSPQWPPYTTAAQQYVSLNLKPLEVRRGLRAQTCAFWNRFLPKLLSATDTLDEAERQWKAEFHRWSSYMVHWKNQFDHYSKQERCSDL
Method: (§2) The frontal cortex (FC) and hippocampus (HC) were dissected out in ice cold 0.1 M phosphate buffer saline (pH 8.0). The tissues were weighed and 20 mg tissue/mL homogenate of brain samples was prepared in phosphate buffer (pH 8.0). The homogenates were centrifuged at 10,000 rpm for 10 min at 4 °C, and the resulting supernatant was used for the estimation of anti-cholinesterase activity following Ellman’s and antioxidants assays.
(§3) Ex vivo analysis of cholinesterase inhibitory potentials was also measured to check the cholinergic hypo function in animal model using the isolated compound CGA and CHF extract.

BChE = target: T3, BChE (Mus musculus, UniProt Q03311); assay type: in vivo; conditions: ex vivo, NORT animals, vs scopolamine treated group
T3 construct: supernatants were collected from homogenized part of brain tissues; from tissue; host or cells: mouse frontal cortex and hippocampus homogenate supernatant
T3 sequence (Q03311 30-603): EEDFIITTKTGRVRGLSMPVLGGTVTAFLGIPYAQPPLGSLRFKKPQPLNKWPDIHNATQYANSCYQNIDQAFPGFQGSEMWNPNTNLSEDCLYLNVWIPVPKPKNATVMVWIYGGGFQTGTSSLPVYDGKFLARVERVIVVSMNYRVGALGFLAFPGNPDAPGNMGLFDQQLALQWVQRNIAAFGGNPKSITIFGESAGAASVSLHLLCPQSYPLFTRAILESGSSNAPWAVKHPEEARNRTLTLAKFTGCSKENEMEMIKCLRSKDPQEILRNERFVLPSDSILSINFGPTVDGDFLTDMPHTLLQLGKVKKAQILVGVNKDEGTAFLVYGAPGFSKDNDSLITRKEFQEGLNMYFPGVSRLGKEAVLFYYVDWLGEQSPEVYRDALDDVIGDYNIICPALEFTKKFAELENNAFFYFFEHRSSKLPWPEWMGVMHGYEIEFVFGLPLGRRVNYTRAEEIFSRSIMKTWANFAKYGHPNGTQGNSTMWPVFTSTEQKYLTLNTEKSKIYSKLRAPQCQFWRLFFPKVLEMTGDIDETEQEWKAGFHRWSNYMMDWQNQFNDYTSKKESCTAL
Method: as §2, §3

[4] = Ex vivo brain DPPH free radicals scavenging activity; assay type: in vivo, mice
Method: as §2

T1 sequence (O42275 24-633): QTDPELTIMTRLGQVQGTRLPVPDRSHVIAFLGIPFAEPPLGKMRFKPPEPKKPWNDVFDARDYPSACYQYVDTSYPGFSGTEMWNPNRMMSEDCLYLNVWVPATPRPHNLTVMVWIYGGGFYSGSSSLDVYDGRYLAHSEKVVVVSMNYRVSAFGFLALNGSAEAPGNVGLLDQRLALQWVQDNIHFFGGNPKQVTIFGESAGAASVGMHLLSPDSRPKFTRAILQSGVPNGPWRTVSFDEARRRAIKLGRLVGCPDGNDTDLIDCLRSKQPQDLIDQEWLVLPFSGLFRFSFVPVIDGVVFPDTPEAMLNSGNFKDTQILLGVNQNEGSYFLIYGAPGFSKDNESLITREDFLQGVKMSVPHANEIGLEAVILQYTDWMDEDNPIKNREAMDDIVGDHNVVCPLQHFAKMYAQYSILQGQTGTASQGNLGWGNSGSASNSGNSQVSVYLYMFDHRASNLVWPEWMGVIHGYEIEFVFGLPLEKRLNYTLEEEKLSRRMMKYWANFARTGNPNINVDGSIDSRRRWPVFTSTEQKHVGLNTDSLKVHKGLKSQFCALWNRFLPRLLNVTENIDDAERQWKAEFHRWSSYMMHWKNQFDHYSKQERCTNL

O=C(/C=C/c1ccc(O)c(O)c1)O[C@@H]1C[C@](O)(C(=O)O)C[C@@H](O)[C@H]1O [Compound-I, Chlorogenic acid]
% AChE Mean ± SEM ([1]; 31.05 µg/mL): 50±0.4^ ns % | % AChE Mean ± SEM ([1]; 62.5 µg/mL): 59±0.3 % | % AChE Mean ± SEM ([1]; 125 µg/mL): 68±0.4 % | % AChE Mean ± SEM ([1]; 250 µg/mL): 76±0.5 % | % AChE Mean ± SEM ([1]; 500 µg/mL): 82±0.1 % | % AChE Mean ± SEM ([1]; 1000 µg/mL, listed as Compound -I): 90±0.2^ns % | % AChE Mean ± SEM ([1]; 1000 µg/mL, listed as Compound I): 90 ± 0.2% | IC50 ([1]; linear regression, read-out: AChE IC50 (converted)): 87.5 µM | dose range that remained safe and nontoxic (mice): up to 300 mg/kg | escape latency [2]: significant decline (p < 0.001) | total numbers of entries into arms ([2]; treated groups compared to control group): non-significant (p > 0.05) decrease | percentage of alternate arm returns [2]: significant (*p<0.05; **p < 0.01) increase | percentage of same arm returns [2]: significant (p < 0.01) reduction | time for exploration of novel object, test phase, long term memory [3]: significant (*p < 0.05, **p < 0.01) increase | %DI, long term memory [3]: significant (*p < 0.05, **p < 0.01) increase | time with novel object, test phase, short term memory [3]: more time with novel object | time for exploration of two objects, sample phase, short term memory ([3]; vs scopolamine treated group): no significant difference | total time spent exploring the two identical objects, sample phase, long term memory ([3]; vs scopolamine treated group): no significant differences | % AChE activity in cortex and hippocampus (AChE): significantly (***p < 0.001; **p < 0.01) lower | % BChE activity in cortex and hippocampus (BChE): significantly (***p < 0.001; **p < 0.01) lower | % anti-radicals activities (DPPH) in cortex ([4]; NORT animals, cortex): 51.43 ± 2.88% | % anti-radicals activities (DPPH) in hippocampus ([4]; NORT animals, hippocampus): 65.36 ± 1.45% | % DPPH inhibition potential in cortex ([4]; Y-maze test animals, frontal cortex): 47.85 ± 2.11% | % DPPH inhibition potential in hippocampus ([4]; Y-maze test animals, hippocampus): 44.12 ± 1.77%

COc1cc2c(cc1OC)C(=O)C(CC1CCN(Cc3ccccc3)CC1)C2 (stereo not drawn) [Donepezil, reference compound]
escape latency [2]: significant decline (p < 0.001) | percentage of alternate arm returns [2]: significant (*p<0.05; **p < 0.01) increase | percentage of same arm returns [2]: significant (p < 0.01) reduction | time for exploration of novel object, test phase, long term memory [3]: significant (*p < 0.05, **p < 0.01) increase | %DI, long term memory [3]: significant (*p < 0.05, **p < 0.01) increase | time with novel object, test phase, short term memory [3]: more time with novel object
